Measured values reported in patent US20200325178A1, “PEPTIDE NUCLEIC ACID MOLECULES FOR TREATMENT OF GRAM POSITIVE BACTERIAL INFECTION” (priority 2017, published 2020).

Experiments:
S. aureus MRSA strains = assay: Bioscreen-C dose response growth curve of MRSA over 24 hours; assay type: cell-based, Staphylococcus aureus; conditions: HCl salts, doses from 100 μg downwards, 10 mM sodium bicarbonate buffer pH-7.4, OD 420-580 nm
Protocol: Bioscreen-C instrument was used to detect the MIC and MBC of PNA-CPP derivatives against S. aureus MRSA strains. Different concentration of PNA-CPP derivatives were prepared in 10 mM of sodium bicarbonate buffer pH-7.4 and added to ˜5.0 Log 10 CFUs in a Honey comb Bioscreen-C plate.
Compound I-V were assayed against MRSA. FIG. 6-10 show a dose response growth curve of MRSA in presence of increasing concentrations of Compound I-HCl (FIG. 6), Compound II-HCl (FIG. 7), Compound III-HCl (FIG. 8), Compound IV-HCl (FIG. 9), and Compound V-HCl (FIG. 10), determined in a Bioscreen-C spectrophotometer.

[1] = system: S. aureus (ATCC BAA-1556); assay: Murine thigh infection model; assay type: in vivo; conditions: for Mean Log 10 CFU/Thigh / Mean Log 10 Change vs. 1 hr / Mean Log 10 Change vs. 24 hr (vehicle): neutropenic CD-1 mice, 10 mg/kg, 0.2 ml IV, 24 hrs
Protocol: Female 5-6 week old CD-1 (18-22 gm) were used in this study. Mice were quarantined for 48 hours before use and housed in groups of 5 with free access to food and water during the study.
The animals were made neutropenic by administration of cyclophosphamide on Days −4 and −1. On Days −4 150 mg/kg of cyclohsphamide administered by intraperitoneal route and 100 mg/kg was administered on Days −1. Days listed are referenced from the date of infection (study day-Day 0).
On Day 0, animals were inoculated intramuscularly (0.1 ml/thigh) with ˜1×10^5 CFU/mouse of S. aureus (ATCC BAA-1556) into right thigh. […] Group-3 of mice were administered with vancomycin at 25 mg/kg via subcutaneous route. Group-4 of mice administered with buffer and group-5 used as the inoculation control.
Mice were euthanized by CO2 inhalation and thighs were removed, and placed in 2 ml of sterile PBS, homogenized, serially diluted and plated to determine the CFU counts. Plates were incubated 18-24 hours and CFUs were counted.
Colony were counted and the number of colonies is converted to CFU/thigh by multiplying the number of colonies by the volume of the thigh homogenate spotted and the dilution at which the colonies were counted (5-50 colonies/spot). All count data were transformed into logo CFU/thigh for calculation of means and standard deviations.

S. aureus MSSA strains = assay: Bioscreen-C dose response growth curve of MSSA over 24 hours; assay type: cell-based, Staphylococcus aureus; conditions: HCl salts, doses from 100 μg downwards, 10 mM sodium bicarbonate buffer pH-7.4, OD 420-580 nm
Protocol: (§1) Bioscreen-C instrument was used to detect the MIC and MBC of PNA-CPP derivatives against S. aureus MSSA strains. Different concentrations of PNA-CPP derivatives were prepared in 10 mM of sodium bicarbonate buffer pH-7.4 and added to ˜5.0 Log 10 CFUs in a Honey comb Bioscreen-C plate.
Compound I-V were assayed against MSSA. FIG. 12-16 show a dose response growth curve of MSSA in presence of increasing concentrations of Compound I-HCl (FIG. 12), Compound II-HCl (FIG. 13), Compound III-HCl (FIG. 14), Compound IV-HCl (FIG. 15), and Compound V-HCl (FIG. 16), determined in a Bioscreen-C spectrophotometer.

MSSA = assay: In vitro assay of emergence of resistance, MSSA, 8 days; assay type: cell-based, S. aureus; conditions: 6.25 μg (twice MBC) in one ml Mueller Hinton broth, 37° C., through Day 8
Protocol: To determine the development of resistance in MRSA and MSSA strains against Compound I-HCl and Compound IV-HCl, an in vitro assay was performed. Twice the amount of MBC of Compound I-HCl (6.25 μg) and Compound IV-HCl (6.25 μg) were mixed with ˜5.0 log 10 CFUs in one ml of Mueller Hinton broth and incubated for 8 days at 37° C. Eight tubes of culture were used for each drug and bacterial strains. At 24 hours of interval, culture tubes were centrifuged and spent media were replaced with fresh media in presence of Compound I-HCl and Compound IV-HCl and further incubated to observe the growth of S. aureus strains. At 24 hours interval, one set of culture tube exposed to drugs were selected and a fraction of the culture used to plate on agar plates to observe the reduction of CFU counts as compared to untreated control. The rest of the culture samples were allowed to grow without any drug for additional 24 hours to observe the growth of S. aureus strains. One set of culture tubes without drug was used as the positive control.
The assays above were also performed using MSSA strains and Compounds I and IV.

[2] = system: MSSA clinical isolates and ATCC strains; assay: MIC and MBC against MSSA clinical isolates and ATCC strains; assay type: cell-based, Staphylococcus aureus; parameters: MIC: unit not given here
Protocol: as §1
After the growth curve assays, the number of colony forming units (CFU) were counted to determine the MIC and MBC of each PNA-CPP derivative against MSSA.
Minimum inhibitory concentration (MIC) analyses were performed as described in Clinical and Laboratory Standards Institute, Methods for Dilution Antimicrobial Susceptibility Tests for Bacteria that Grow Aerobically, 7th ed.; Approved Standard M7-A7; CLSI: Wayne, Pa., USA, 2006; volume 26, No. 2. Vancomycin and Oxacillin were used as controls. MIC was determined as the lowest concentration of agent that inhibits bacterial growth detected at A420-580 nm.

[3] = Single ascending intravenous dose tolerability (MTD) in mice; assay type: in vivo; conditions: 10 mg/kg single intravenous bolus dose
Protocol: Single ascending intravenous (IV) dose study was performed to determine tolerability of the drug in mice.
Initially, Compound I-HCl and Compound IV-HCl were administered with a 10 mg/kg intravenous bolus dose using a 10 mL/kg dose volume (0.2 mL) and observed the effects before proceeding to the next higher dose. […] However, higher concentration (>15 mg/kg) had shown adverse effect and death in mice within 30 mins of administration of the drug.

[4] = MSSA table, isolate MRSA#16 [sic]
[5] = MSSA table, isolate MRSA#25 [sic]
[6] = MSSA table, isolate MRSA#27 [sic]
[7] = MSSA table, isolate MRSA#34 [sic]
[8] = MSSA table, isolate MRSA#38 [sic]
[9] = MSSA table, isolate MRSA#57 [sic]
[10] = MSSA table, isolate MRSA#60 [sic]
[11] = MSSA table, isolate printed MRSA#49
[12] = MSSA table, isolate printed MRSA#61

## Compound I: PNA-CPP conjugate: PNA cgt cat acg cgg tcc (SEQ ID NO: 51), AEEA linker, CPP BXRXRRXRRXRRXR; FIG. 1 (CGTCATACGCGGTCC; all peptide nucleic acid (PNA); cell-penetrating peptide attached via AEEA linker, further chemistry not fully specified)
S. aureus MRSA strains
  lowest dose at which no MRSA growth was observed (growth curve): 3.13 µg
[1]; administered at 1 and 13 hours or at 1, 9, and 17 hours
  reduction in CFU counts compared to Vancomycin positive control treatment: comparable or improved reduction in CFU counts
[1]; +1 & 13 hrs
  Mean Log 10 CFU/Thigh: 4.46 Log 10 CFU/Thigh
  Mean Log 10 Change vs. 1 hr: −1.16 Log 10
  Mean Log 10 Change vs. 24 hr (vehicle): −4.07 Log 10
[1]; +1, +9, & +17 hrs
  Mean Log 10 CFU/Thigh: 3.46 Log 10 CFU/Thigh
  Mean Log 10 Change vs. 1 hr: −2.16 Log 10
  Mean Log 10 Change vs. 24 hr (vehicle): −5.07 Log 10
S. aureus MSSA strains
  lowest dose at which no MSSA growth was observed (growth curve): 3.13 µg
MSSA
  MSSA CFU counts and emergence of resistant strains: reduced MSSA CFUs without emergence of resistant strains
[2]; [4]
  MBC: 1.56/1.56 ∞g
  MIC: 1.56/1.56 ∞g
[2]; [5]
  MBC: 3.25 ∞g
  MIC: 1.56 ∞g
[2]; [6]
  MBC: 1.56 ∞g
  MIC: 0.78 ∞g
[2]; [7]
  MBC: 3.25/3.25 ∞g
  MIC: 3.25/3.25 ∞g
[2]; [8]
  MBC: 1.56/1.56 ∞g
  MIC: 1.56/1.56 ∞g
[2]; MSSA table, isolate MRSA#55
  MBC: 3.25 ∞g
  MIC: 1.56 ∞g
[2]; [9]
  MBC: 3.25 ∞g
  MIC: 1.56 ∞g
[2]; [10]
  MBC: 1.56 ∞g
  MIC: 0.78 ∞g
[2]; [11]
  MBC: 3.25 ∞g
  MIC: 1.56 ∞g
[2]; [12]
  MBC: 3.25/3.25 ∞g
  MIC: 3.25/3.25 ∞g
[2]; strain BAA 1721
  MBC: 3.25 ∞g
  MIC: 1.56 ∞g
[3]
  tolerability in mice: well tolerated
